Laboratory results as given in publication PMC4448990 (Pharmacology Research & Perspectives, 2015).
pIC50: −log10 of the molar value. Several values for one entry are separate records, joined by “and”; a condition that tells them apart may be missing. Equal values may be shown once. Read-outs that look alike come from different tables or passages of the source.

Tests used:
Opioid, delta 2 (h) = Opioid, delta 2 (h) (Homo sapiens, UniProt P41143); experiment: in vitro selectivity profile; type: binding
[1] = target: human α3β2γ2 GABAA receptors (Homo sapiens, UniProt P18507+P34903+P47870); experiment: submaximal GABA currents in Ltk cells; type: cell-based
human α3β2γ2 GABAA receptors, sequence (P34903 29-492): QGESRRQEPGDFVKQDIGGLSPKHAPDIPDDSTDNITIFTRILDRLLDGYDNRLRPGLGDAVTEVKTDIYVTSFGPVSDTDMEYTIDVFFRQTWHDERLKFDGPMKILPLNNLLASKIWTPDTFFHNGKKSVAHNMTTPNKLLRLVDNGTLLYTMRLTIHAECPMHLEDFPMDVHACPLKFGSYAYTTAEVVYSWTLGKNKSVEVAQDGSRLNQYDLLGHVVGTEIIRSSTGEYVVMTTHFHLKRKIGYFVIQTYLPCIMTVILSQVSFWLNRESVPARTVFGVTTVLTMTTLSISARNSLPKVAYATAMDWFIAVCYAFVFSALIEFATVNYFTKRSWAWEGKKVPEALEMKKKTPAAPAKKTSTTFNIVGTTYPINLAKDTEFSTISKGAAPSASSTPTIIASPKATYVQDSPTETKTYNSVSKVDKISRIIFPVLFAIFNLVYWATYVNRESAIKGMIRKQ
human α3β2γ2 GABAA receptors, sequence (P47870 25-512 limits assumed): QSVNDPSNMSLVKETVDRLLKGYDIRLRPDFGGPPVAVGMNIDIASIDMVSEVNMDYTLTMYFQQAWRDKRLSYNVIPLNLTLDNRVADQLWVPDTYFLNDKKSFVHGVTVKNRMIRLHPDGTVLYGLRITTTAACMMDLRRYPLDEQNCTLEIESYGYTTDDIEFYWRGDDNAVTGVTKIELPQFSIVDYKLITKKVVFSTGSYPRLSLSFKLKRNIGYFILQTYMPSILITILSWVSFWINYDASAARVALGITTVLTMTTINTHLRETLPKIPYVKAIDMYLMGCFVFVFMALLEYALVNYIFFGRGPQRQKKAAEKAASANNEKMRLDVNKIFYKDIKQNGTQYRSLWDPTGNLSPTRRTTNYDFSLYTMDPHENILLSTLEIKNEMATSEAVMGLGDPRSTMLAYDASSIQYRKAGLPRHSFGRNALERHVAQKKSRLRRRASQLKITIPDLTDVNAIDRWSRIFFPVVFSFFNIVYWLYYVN
human α3β2γ2 GABAA receptors, sequence (P18507 40-475): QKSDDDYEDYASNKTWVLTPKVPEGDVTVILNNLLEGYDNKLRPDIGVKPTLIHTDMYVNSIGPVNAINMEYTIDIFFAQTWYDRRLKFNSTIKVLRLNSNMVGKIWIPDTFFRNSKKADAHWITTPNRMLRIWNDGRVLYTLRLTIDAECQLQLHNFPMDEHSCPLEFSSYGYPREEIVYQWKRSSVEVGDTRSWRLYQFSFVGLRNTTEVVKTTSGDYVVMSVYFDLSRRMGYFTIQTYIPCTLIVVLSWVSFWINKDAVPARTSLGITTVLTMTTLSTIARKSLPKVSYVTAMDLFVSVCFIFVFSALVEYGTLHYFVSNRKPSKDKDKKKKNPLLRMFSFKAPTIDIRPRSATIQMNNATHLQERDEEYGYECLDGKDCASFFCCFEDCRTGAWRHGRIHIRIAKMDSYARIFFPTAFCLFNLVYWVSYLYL

[2] = system: Thyrotropin-releasing hormone, TRH; experiment: in vitro selectivity profile; type: binding; settings: eslicarbazepine 400 μmol/L
[3] = system: Glutamate, chloride-dependent site; experiment: in vitro selectivity profile; type: binding; settings: eslicarbazepine 400 μmol/L
Dopamine, D4.2 (h) = Dopamine, D4.2 (h) (Homo sapiens, UniProt P21917, DEL265-296); experiment: in vitro selectivity profile; type: binding
Dopamine, D3 = experiment: in vitro selectivity profile; type: binding; settings: eslicarbazepine 400 μmol/L
[4] = target: T1, human GlyRα3 glycine receptors (Homo sapiens, UniProt O75311); experiment: submaximal glycine currents in CHO cells; type: cell-based
T1 sequence (O75311 34-464): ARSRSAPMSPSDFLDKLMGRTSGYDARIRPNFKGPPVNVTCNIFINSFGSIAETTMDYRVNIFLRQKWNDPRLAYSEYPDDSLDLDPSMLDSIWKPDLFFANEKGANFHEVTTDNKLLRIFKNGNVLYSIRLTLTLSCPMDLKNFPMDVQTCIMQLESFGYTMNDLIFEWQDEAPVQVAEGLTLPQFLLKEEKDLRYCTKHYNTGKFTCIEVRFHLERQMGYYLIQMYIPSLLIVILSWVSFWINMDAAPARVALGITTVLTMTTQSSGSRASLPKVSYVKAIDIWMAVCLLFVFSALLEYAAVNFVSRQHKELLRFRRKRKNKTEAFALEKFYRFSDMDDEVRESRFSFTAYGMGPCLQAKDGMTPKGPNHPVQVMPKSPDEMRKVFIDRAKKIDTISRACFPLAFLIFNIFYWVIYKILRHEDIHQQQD

Oxygenase, COX-2 = experiment: in vitro selectivity profile; type: biochemical; settings: eslicarbazepine 400 μmol/L
[5] = target: hKv7.2 potassium channels (Homo sapiens, UniProt O43526); experiment: whole-cell patch clamp, hKv7.2 in CHO cells; type: cell-based; settings: depolarizing pulse +20 mV from holding potential −80 mV
Neuropeptide, NPY2 (h) = Neuropeptide, NPY2 (h) (Homo sapiens, UniProt P49146); experiment: in vitro selectivity profile; type: binding
Melatonin, nonselective = experiment: in vitro selectivity profile; type: binding; settings: eslicarbazepine 400 μmol/L
[6] = target: human α5β2γ2 GABAA receptors (Homo sapiens, UniProt P18507+P31644+P47870); experiment: submaximal GABA currents in Ltk cells; type: cell-based
human α5β2γ2 GABAA receptors, sequence (P31644 32-462): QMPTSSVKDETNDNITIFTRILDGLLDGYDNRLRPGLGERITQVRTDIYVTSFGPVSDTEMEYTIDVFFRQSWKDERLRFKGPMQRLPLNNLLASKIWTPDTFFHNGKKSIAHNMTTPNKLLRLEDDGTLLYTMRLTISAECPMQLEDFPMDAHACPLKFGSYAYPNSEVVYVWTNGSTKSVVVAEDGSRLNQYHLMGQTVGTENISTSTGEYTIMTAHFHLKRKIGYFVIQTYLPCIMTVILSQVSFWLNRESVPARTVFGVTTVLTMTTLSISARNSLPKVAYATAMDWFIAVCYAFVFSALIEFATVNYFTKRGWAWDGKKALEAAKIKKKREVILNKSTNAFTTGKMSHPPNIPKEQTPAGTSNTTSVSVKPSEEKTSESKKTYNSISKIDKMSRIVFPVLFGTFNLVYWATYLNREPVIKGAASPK
human α5β2γ2 GABAA receptors, sequence (P47870 25-512 limits assumed): as the sequence (P47870 25-512 limits assumed) above
human α5β2γ2 GABAA receptors, sequence (P18507 40-475): as the sequence (P18507 40-475) above

Neurokinin, NK3 (NKB) = experiment: in vitro selectivity profile; type: binding; settings: eslicarbazepine 400 μmol/L
Histamine, H3 = experiment: in vitro selectivity profile; type: binding; settings: eslicarbazepine 400 μmol/L
[7] = target: human α2β2γ2 GABAA receptors (Homo sapiens, UniProt P18507+P47869+P47870); experiment: submaximal GABA currents in Ltk cells; type: cell-based
human α2β2γ2 GABAA receptors, sequence (P47869 29-451): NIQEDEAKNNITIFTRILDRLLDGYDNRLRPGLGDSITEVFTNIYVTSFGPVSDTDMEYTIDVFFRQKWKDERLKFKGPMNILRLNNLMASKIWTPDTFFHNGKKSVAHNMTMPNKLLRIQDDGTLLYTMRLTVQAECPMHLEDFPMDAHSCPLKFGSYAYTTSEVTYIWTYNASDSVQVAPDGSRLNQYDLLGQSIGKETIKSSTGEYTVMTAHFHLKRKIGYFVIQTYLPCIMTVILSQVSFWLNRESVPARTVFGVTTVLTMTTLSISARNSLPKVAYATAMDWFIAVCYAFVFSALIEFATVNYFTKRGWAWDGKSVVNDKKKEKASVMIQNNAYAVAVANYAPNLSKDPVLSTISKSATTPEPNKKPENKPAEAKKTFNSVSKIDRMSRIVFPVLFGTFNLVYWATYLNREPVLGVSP
human α2β2γ2 GABAA receptors, sequence (P47870 25-512 limits assumed): as the sequence (P47870 25-512 limits assumed) above
human α2β2γ2 GABAA receptors, sequence (P18507 40-475): as the sequence (P18507 40-475) above

Serotonin, 5HT2A (h) = Serotonin, 5HT2A (h) (Homo sapiens, UniProt P28223); experiment: in vitro selectivity profile; type: binding
[8] = system: transient Na+ current (INaT); settings: ref Döser et al. [2013b], [2015]; cited from earlier work
GABA A, agonist site = experiment: in vitro selectivity profile; type: binding; settings: eslicarbazepine 400 μmol/L
Dopamine, D2s (h) = Dopamine, D2s (h) (Homo sapiens, UniProt P14416); experiment: in vitro selectivity profile; type: binding
[9] = system: GABA A, BDZ, alpha 6 site; experiment: in vitro selectivity profile; type: binding; settings: eslicarbazepine 400 μmol/L
[10] = system: Glycine, strychnine-sensitive; experiment: in vitro selectivity profile; type: binding; settings: eslicarbazepine 400 μmol/L
[11] = cited from earlier work
Sodium, site 2 = experiment: in vitro selectivity profile; type: binding; settings: eslicarbazepine 400 μmol/L
[12] = target: human GRIN1/GRIN2B NMDA receptor (Homo sapiens, UniProt Q05586+Q13224); experiment: submaximal NMDA-receptor-mediated currents in HEK cells; type: cell-based
human GRIN1/GRIN2B NMDA receptor, sequence (Q13224 27-1484, other chains not shown): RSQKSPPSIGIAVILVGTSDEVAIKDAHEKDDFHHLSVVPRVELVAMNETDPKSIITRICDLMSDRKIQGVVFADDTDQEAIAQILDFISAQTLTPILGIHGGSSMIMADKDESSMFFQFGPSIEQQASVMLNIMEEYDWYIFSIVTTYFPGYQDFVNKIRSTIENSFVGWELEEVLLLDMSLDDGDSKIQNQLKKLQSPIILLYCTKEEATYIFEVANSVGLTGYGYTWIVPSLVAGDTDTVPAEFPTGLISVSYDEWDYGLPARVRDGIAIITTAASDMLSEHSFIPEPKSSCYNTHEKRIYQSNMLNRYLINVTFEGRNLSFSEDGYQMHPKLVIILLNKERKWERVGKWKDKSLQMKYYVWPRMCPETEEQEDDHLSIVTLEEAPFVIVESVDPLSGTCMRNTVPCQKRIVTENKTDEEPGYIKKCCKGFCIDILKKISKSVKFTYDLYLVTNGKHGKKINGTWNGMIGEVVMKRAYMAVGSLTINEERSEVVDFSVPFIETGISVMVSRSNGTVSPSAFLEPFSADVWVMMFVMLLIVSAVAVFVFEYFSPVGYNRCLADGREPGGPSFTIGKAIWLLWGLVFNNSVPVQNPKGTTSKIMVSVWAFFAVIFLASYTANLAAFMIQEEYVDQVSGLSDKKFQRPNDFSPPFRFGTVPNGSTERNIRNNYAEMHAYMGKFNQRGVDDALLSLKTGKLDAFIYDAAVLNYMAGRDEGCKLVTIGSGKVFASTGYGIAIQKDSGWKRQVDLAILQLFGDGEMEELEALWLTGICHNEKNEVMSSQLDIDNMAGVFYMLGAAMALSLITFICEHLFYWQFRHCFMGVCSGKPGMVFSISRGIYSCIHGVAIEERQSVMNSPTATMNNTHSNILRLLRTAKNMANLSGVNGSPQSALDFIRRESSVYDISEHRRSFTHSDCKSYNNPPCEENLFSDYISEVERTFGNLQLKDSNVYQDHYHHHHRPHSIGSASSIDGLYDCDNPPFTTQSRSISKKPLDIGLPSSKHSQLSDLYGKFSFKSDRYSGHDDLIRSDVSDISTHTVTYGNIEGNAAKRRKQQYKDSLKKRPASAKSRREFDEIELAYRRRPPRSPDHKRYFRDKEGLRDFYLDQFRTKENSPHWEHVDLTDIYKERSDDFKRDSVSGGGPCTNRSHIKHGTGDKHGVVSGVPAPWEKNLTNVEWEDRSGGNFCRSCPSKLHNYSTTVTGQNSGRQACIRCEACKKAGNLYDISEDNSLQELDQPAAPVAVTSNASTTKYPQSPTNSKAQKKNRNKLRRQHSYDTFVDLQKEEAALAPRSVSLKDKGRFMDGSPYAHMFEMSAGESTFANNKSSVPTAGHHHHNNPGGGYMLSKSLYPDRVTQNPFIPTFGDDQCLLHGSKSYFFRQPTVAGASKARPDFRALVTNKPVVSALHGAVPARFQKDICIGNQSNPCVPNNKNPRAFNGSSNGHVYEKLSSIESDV

Muscarinic, M1 (h) = Muscarinic, M1 (h) (Homo sapiens, UniProt P11229); experiment: in vitro selectivity profile; type: binding
Adenosine, A2A (h) = Adenosine, A2A (h) (Homo sapiens, UniProt P29274); experiment: in vitro selectivity profile; type: binding
Adenosine, A2A (h), sequence (P29274 whole entry): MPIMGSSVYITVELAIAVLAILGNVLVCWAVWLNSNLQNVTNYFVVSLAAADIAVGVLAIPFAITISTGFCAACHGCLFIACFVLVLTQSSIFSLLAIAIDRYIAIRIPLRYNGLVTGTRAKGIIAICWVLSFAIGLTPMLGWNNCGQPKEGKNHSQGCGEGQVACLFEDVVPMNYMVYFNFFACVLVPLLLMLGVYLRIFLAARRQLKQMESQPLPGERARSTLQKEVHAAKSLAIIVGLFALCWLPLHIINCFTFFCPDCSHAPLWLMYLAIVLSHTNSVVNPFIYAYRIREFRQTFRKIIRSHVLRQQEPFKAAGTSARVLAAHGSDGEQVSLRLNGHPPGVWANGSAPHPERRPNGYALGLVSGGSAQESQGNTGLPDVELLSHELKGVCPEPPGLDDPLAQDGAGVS

Serotonin, 5HT5A (h) = Serotonin, 5HT5A (h) (Homo sapiens, UniProt P47898); experiment: in vitro selectivity profile; type: binding
Sigma 2 = experiment: in vitro selectivity profile; type: binding; settings: eslicarbazepine 400 μmol/L
[13] = plasma and brain concentrations of eslicarbazepine after ESL; type: in vivo; settings: mouse; for concentration at 60 min: 100 mg/kg; for concentration at 15 min: Amygdala kindling
[14] = target: Protease, caspase, CASP-10 (h) (Homo sapiens, UniProt Q92851); experiment: in vitro selectivity profile; type: biochemical
[15] = target: Norepinephrine transporter (h) (Homo sapiens, UniProt P23975); experiment: in vitro selectivity profile; type: binding
Norepinephrine transporter (h), sequence (P23975 whole entry): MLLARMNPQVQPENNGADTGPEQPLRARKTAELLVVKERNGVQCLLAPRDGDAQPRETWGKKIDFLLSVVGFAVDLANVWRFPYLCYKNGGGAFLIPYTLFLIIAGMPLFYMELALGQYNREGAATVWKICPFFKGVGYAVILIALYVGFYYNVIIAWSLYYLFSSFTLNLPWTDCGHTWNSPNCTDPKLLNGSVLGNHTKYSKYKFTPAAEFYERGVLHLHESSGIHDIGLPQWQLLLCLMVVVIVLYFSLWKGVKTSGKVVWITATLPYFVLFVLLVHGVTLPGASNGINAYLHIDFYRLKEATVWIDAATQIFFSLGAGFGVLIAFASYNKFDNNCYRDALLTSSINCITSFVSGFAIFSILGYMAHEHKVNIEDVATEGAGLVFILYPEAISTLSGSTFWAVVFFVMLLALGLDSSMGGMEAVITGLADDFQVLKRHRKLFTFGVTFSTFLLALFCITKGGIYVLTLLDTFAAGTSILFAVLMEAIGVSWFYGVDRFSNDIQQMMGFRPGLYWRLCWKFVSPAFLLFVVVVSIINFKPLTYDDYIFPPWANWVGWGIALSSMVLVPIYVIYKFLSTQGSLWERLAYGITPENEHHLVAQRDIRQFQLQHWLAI

[16] = Amygdala kindling, ESL 200 mg/kg i.p., 15 min, ref Soerensen et al. ([2011])
[17] = Amygdala kindling, ESL 300 mg/kg i.p., 15 min, ref Soerensen et al. ([2011])
[18] = Corneal kindling, ESL 100 mg/kg i.p., 60 min, ref Pekcec et al. ([2011])
[19] = MES test, ESL 50 mg/kg p.o., 60 min, ref Pires et al. ([2011])

Compound: NC(=O)N1c2ccccc2C[C@H](O)c2ccccc21 [eslicarbazepine]
- inhibition at 400 µM (Opioid, delta 2 (h)): 7.91%
- GABA inward current stimulation, α3β2γ2, Mean ± SEM ([1]; 50 μmol/L): 95.6 ± 4.8
- GABA inward current stimulation, α3β2γ2, Mean ± SEM ([1]; 100 μmol/L): 97.9 ± 4.2
- GABA inward current stimulation, α3β2γ2, Mean ± SEM ([1]; 250 μmol/L): 96.4 ± 2.2
- GABA inward current stimulation, α3β2γ2, Mean ± SEM ([1]; 500 μmol/L): 91.6 ± 5.6
- effect on submaximal α3β2γ2 GABA currents ([1]; 50–500 μmol/L): did not significantly change submaximal GABA currents
- % inhibition [2]: 16.14%
- % inhibition [3]: 9.36%
- inhibition at 400 µM (Dopamine, D4.2 (h)): 0%
- % inhibition (Dopamine, D3): 0.0%
- pIC50 [4]: 2.93
- % inhibition (Oxygenase, COX-2): 0.0%
- IC50, KV7.2 outward currents [5]: no inhibitory effect
- inhibition at 400 µM (Neuropeptide, NPY2 (h)): 8.43%
- % inhibition (Melatonin, nonselective): 17.43%
- GABA inward current stimulation, α5β2γ2, Mean ± SEM ([6]; 50 μmol/L): 95.2 ± 2.2
- GABA inward current stimulation, α5β2γ2, Mean ± SEM ([6]; 100 μmol/L): 93.9 ± 0.6
- GABA inward current stimulation, α5β2γ2, Mean ± SEM ([6]; 250 μmol/L): 93.5 ± 1.8
- GABA inward current stimulation, α5β2γ2, Mean ± SEM ([6]; 500 μmol/L): 89.7 ± 3.4
- effect on submaximal α5β2γ2 GABA currents ([6]; 50–500 μmol/L): did not significantly change submaximal GABA currents
- % inhibition (Neurokinin, NK3 (NKB)): 0.0%
- % inhibition (Histamine, H3): 0.0%
- GABA inward current stimulation, α2β2γ2, Mean ± SEM ([7]; 50 μmol/L): 91.6 ± 2.7
- GABA inward current stimulation, α2β2γ2, Mean ± SEM ([7]; 100 μmol/L): 97.0 ± 2.7
- GABA inward current stimulation, α2β2γ2, Mean ± SEM ([7]; 250 μmol/L): 88.6 ± 3.2
- effect on submaximal α2β2γ2 GABA currents ([7]; 250 μmol/L): slight decrease
- GABA inward current stimulation, α2β2γ2, Mean ± SEM ([7]; 500 μmol/L): 89.8 ± 4.0
- effect on submaximal α2β2γ2 GABA currents ([7]; 50–500 μmol/L, exception at 250 μmol/L): did not significantly change submaximal GABA currents
- inhibition at 400 µM (Serotonin, 5HT2A (h)): 19.2%
- inhibition of firing of DGCs, control versus pilocarpine-treated rats [8]: equally effective in inhibiting firing of DGCs in control versus pilocarpine-treated rats
- % inhibition (GABA A, agonist site): 0.0%
- inhibition at 400 µM (Dopamine, D2s (h)): 0%
- % inhibition [9]: 0.0%
- % inhibition [10]: 25.95%
- Brain (whole volume) Eslicarbazepine [11, 16]: 37.5 nmol/g
- Plasma eslicarbazepine [11, 16]: 236.2 µmol/L
- Brain (whole volume) Eslicarbazepine [11, 17]: 58.7 nmol/g
- Plasma eslicarbazepine [11, 17]: 282.8 µmol/L
- Brain (whole volume) Eslicarbazepine [11, 18]: 67.7 nmol/g
- Plasma eslicarbazepine [11, 18]: 168.1 µmol/L
- Brain (whole volume) Eslicarbazepine [11, 19]: 22 nmol/g and 22.0 nmol/g
- Plasma eslicarbazepine [11, 19]: 32 µmol/L and 31.5 µmol/L
- % inhibition (Sodium, site 2): 34.46%
- pIC50 [12]: 2.91
- inhibition at 400 µM (Muscarinic, M1 (h)): 0%
- inhibition at 400 µM (Adenosine, A2A (h)): 6.81%
- inhibition at 400 µM (Serotonin, 5HT5A (h)): 11.9%
- % inhibition (Sigma 2): 6.11%
- Kp at 60 min ([13]; NMRI, Swiss, brain and plasma, other: oral or intraperitoneal): 3.4 to 5.8
- concentration at 60 min ([13]; NMRI, brain (lipid fraction), intraperitoneal, Brain (lipid fraction) Eslicarbazepine, Corneal kindling, ESL 100 mg/kg i.p.): 564 µM
- concentration at 15 min ([13]; NMRI, brain (lipid fraction), intraperitoneal, 200 mg/kg, Brain (lipid fraction) Eslicarbazepine, ESL 200 mg/kg i.p.): 313 µM
- concentration at 15 min ([13]; NMRI, brain (lipid fraction), intraperitoneal, 300 mg/kg, Brain (lipid fraction) Eslicarbazepine, ESL 300 mg/kg i.p.): 489 µM
- concentration at 60 min ([13]; NMRI, brain (organic phase), intraperitoneal, Brain (organic phase) Eslicarbazepine, Corneal kindling, ESL 100 mg/kg i.p.): 314 µM
- concentration at 15 min ([13]; NMRI, brain (organic phase), intraperitoneal, 200 mg/kg, Brain (organic phase) Eslicarbazepine, ESL 200 mg/kg i.p.): 174 µM
- concentration at 15 min ([13]; NMRI, brain (organic phase), intraperitoneal, 300 mg/kg, Brain (organic phase) Eslicarbazepine, ESL 300 mg/kg i.p.): 273 µM
- concentration at 60 min ([13]; Swiss, brain (lipid fraction), oral, Brain (lipid fraction) Eslicarbazepine, Latrunculin A-induced seizures, ESL 100 mg/kg p.o.): 303 µM
- concentration at 60 min ([13]; Swiss, brain (organic phase), oral, Brain (organic phase) Eslicarbazepine, Latrunculin A-induced seizures, ESL 100 mg/kg p.o.): 169 µM
- inhibition at 400 µM [14]: 0%
- inhibition at 400 µM [15]: 9.33%
